Data published in PubChem BioAssay (NCI).
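Where inhibition never reached the appropriate level, the endpoint shown equals the highest concentration tested. Otherwise, values were interpolated linearly from a five-concentration, 48-hour dose response in 96-well plates. Abbreviation: GI50, concentration required for 50% inhibition of growth. The concentration for full growth arrest is given as TGI.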

How the values were obtained:
Assay in all cases: inhibition of tumour cell growth, NCI panel, 48 h
SNB-19 CNS = system: SNB-19 CNS
A498 renal = system: A498 renal
U251 CNS = system: U251 CNS
HCT-116 colon = system: HCT-116 colon
ACHN renal = system: ACHN renal
OVCAR-8 ovarian = system: OVCAR-8 ovarian
SK-MEL-28 melanoma = system: SK-MEL-28 melanoma
KM12 colon = system: KM12 colon
HT29 colon = system: HT29 colon
NCI-H522 lung = system: NCI-H522 lung
MDA-MB-231 breast = system: MDA-MB-231 breast
MOLT-4 leukemia = system: MOLT-4 leukemia
CAKI-1 renal = system: CAKI-1 renal
LOX IMVI melanoma = system: LOX IMVI melanoma
SR leukemia = system: SR leukemia
PC-3 prostate = system: PC-3 prostate
SF-295 CNS = system: SF-295 CNS
HS 578T breast = system: HS 578T breast
RPMI-8226 leukemia = system: RPMI-8226 leukemia
SF-539 CNS = system: SF-539 CNS
NCI-H460 lung = system: NCI-H460 lung
A549 NSCLC = system: A549 NSCLC
MDA-MB-435 = system: MDA-MB-435
MCF7 breast = system: MCF7 breast
EKVX NSCLC = system: EKVX NSCLC
BT-549 breast = system: BT-549 breast
MALME-3M melanoma = system: MALME-3M melanoma
RXF 393 renal = system: RXF 393 renal
COLO 205 colon = system: COLO 205 colon
MDA-MB-468 breast = system: MDA-MB-468 breast
SW-620 colon = system: SW-620 colon
NCI-H23 lung = system: NCI-H23 lung
OVCAR-4 ovarian = system: OVCAR-4 ovarian
HOP-62 NSCLC = system: HOP-62 NSCLC
HOP-92 NSCLC = system: HOP-92 NSCLC
IGROV1 ovarian = system: IGROV1 ovarian
UO-31 renal = system: UO-31 renal
OVCAR-3 ovarian = system: OVCAR-3 ovarian
UACC-62 melanoma = system: UACC-62 melanoma
T-47D breast = system: T-47D breast
SK-OV-3 ovarian = system: SK-OV-3 ovarian
NCI/ADR-RES ovarian = system: NCI/ADR-RES ovarian
SF-268 CNS = system: SF-268 CNS
HCT-15 colon = system: HCT-15 colon
HL-60(TB) leukemia = system: HL-60(TB) leukemia
DU-145 prostate = system: DU-145 prostate
NCI-H226 lung = system: NCI-H226 lung
TK-10 renal = system: TK-10 renal
K-562 leukemia = system: K-562 leukemia
CCRF-CEM leukemia = system: CCRF-CEM leukemia
SNB-75 CNS = system: SNB-75 CNS
786-0 renal = system: 786-0 renal
SN12C renal = system: SN12C renal
SK-MEL-5 melanoma = system: SK-MEL-5 melanoma
OVCAR-5 ovarian = system: OVCAR-5 ovarian
UACC-257 melanoma = system: UACC-257 melanoma
M14 melanoma = system: M14 melanoma
HCC-2998 colon = system: HCC-2998 colon
SK-MEL-2 melanoma = system: SK-MEL-2 melanoma

`COc1cc(OC)c2c3nc4cc(C)c(C)cc4nc3n(CCN(C)C)c2c1` showed a GI50 (SNB-19 CNS) of 12.9 µM, a TGI (SNB-19 CNS) of 25.7 µM and a GI50 (A498 renal) greater than 100 µM. For the same compound, the TGI (A498 renal) was greater than 100 µM, the GI50 (U251 CNS) was 12.8 µM and the TGI (U251 CNS) was 28 µM. For the same compound, the GI50 (HCT-116 colon) was 13.9 µM, the TGI (HCT-116 colon) was 30.3 µM and the GI50 (ACHN renal) was 11.1 µM. For the same compound, the TGI (ACHN renal) was 23.1 µM, the GI50 (OVCAR-8 ovarian) was 2.4 µM and the TGI (OVCAR-8 ovarian) was 6.84 µM. It also gave a GI50 (SK-MEL-28 melanoma) of 15.6 µM, a TGI (SK-MEL-28 melanoma) of 29.3 µM and a GI50 (KM12 colon) of 17.5 µM. It also gave a TGI (KM12 colon) of 34.2 µM, a GI50 (HT29 colon) of 4.88 µM and a TGI (HT29 colon) of 31.4 µM. The GI50 (NCI-H522 lung) was 13.5 µM, the TGI (NCI-H522 lung) was 33.6 µM and the GI50 (MDA-MB-231 breast) was 11.6 µM. It also gave a TGI (MDA-MB-231 breast) of 24.2 µM, a GI50 (MOLT-4 leukemia) of 10.6 µM and a TGI (MOLT-4 leukemia) of 41.7 µM. It also gave a GI50 (CAKI-1 renal) of 15.9 µM, a TGI (CAKI-1 renal) of 29.8 µM and a GI50 (LOX IMVI melanoma) of 8.99 µM. It also gave a TGI (LOX IMVI melanoma) of 22.7 µM, a GI50 (SR leukemia) of 4.29 µM and a TGI (SR leukemia) of 50.7 µM. For the same compound, the GI50 (PC-3 prostate) was 15.5 µM, the TGI (PC-3 prostate) was 61.4 µM and the GI50 (SF-295 CNS) was 13.1 µM. The TGI (SF-295 CNS) was 26.2 µM, the GI50 (HS 578T breast) was 15.7 µM and the TGI (HS 578T breast) was 39.5 µM. It also gave a GI50 (RPMI-8226 leukemia) of 19.9 µM, a TGI (RPMI-8226 leukemia) greater than 100 µM and a GI50 (SF-539 CNS) of 15 µM. For the same compound, the TGI (SF-539 CNS) was 28.3 µM, the GI50 (NCI-H460 lung) was 12.1 µM and the TGI (NCI-H460 lung) was 26.5 µM. It also gave a GI50 (A549 NSCLC) of 4.98 µM, a TGI (A549 NSCLC) of 22.9 µM and a GI50 (MDA-MB-435) of 14.5 µM. It also gave a TGI (MDA-MB-435) of 28.2 µM, a GI50 (MCF7 breast) of 4.75 µM and a TGI (MCF7 breast) of 19.2 µM. For the same compound, the GI50 (EKVX NSCLC) was 14.7 µM, the TGI (EKVX NSCLC) was 28.3 µM and the GI50 (BT-549 breast) was 14.2 µM. For the same compound, the TGI (BT-549 breast) was 28.5 µM, the GI50 (MALME-3M melanoma) was 14.1 µM and the TGI (MALME-3M melanoma) was 28.1 µM. For the same compound, the GI50 (RXF 393 renal) was 11.8 µM, the TGI (RXF 393 renal) was 25.1 µM and the GI50 (COLO 205 colon) was 5.51 µM. For the same compound, the TGI (COLO 205 colon) was 20 µM, the GI50 (MDA-MB-468 breast) was 12.8 µM and the TGI (MDA-MB-468 breast) was 26.4 µM. For the same compound, the GI50 (SW-620 colon) was 4.65 µM, the TGI (SW-620 colon) was 18.7 µM and the GI50 (NCI-H23 lung) was 13.1 µM. It also gave a TGI (NCI-H23 lung) of 27.8 µM, a GI50 (OVCAR-4 ovarian) of 14.9 µM and a TGI (OVCAR-4 ovarian) of 33.6 µM. The GI50 (HOP-62 NSCLC) was 5.75 µM, the TGI (HOP-62 NSCLC) was 22.2 µM and the GI50 (HOP-92 NSCLC) was 11.5 µM. It also gave a TGI (HOP-92 NSCLC) of 31.1 µM, a GI50 (IGROV1 ovarian) of 12 µM and a TGI (IGROV1 ovarian) of 26.1 µM. The GI50 (UO-31 renal) was 6.21 µM, the TGI (UO-31 renal) was 20.2 µM and the GI50 (OVCAR-3 ovarian) was 16.1 µM. The TGI (OVCAR-3 ovarian) was 30.6 µM, the GI50 (UACC-62 melanoma) was 15.2 µM and the TGI (UACC-62 melanoma) was 29.1 µM. For the same compound, the GI50 (T-47D breast) was 12.9 µM, the TGI (T-47D breast) was 32.1 µM and the GI50 (SK-OV-3 ovarian) was 16.7 µM. It also gave a TGI (SK-OV-3 ovarian) of 32.1 µM, a GI50 (NCI/ADR-RES ovarian) of 10 µM and a TGI (NCI/ADR-RES ovarian) of 27.7 µM. The GI50 (SF-268 CNS) was 14.4 µM, the TGI (SF-268 CNS) was 32.1 µM and the GI50 (HCT-15 colon) was 11.4 µM. For the same compound, the TGI (HCT-15 colon) was 24.7 µM, the GI50 (HL-60(TB) leukemia) was 16.3 µM and the TGI (HL-60(TB) leukemia) was 36.4 µM. The GI50 (DU-145 prostate) was 14.5 µM, the TGI (DU-145 prostate) was 28.2 µM and the GI50 (NCI-H226 lung) was 14.4 µM. The TGI (NCI-H226 lung) was 32.3 µM, the GI50 (TK-10 renal) was 16.5 µM and the TGI (TK-10 renal) was 31.9 µM. For the same compound, the GI50 (K-562 leukemia) was 3.1 µM, the TGI (K-562 leukemia) was 25.3 µM and the GI50 (CCRF-CEM leukemia) was 22.4 µM. The TGI (CCRF-CEM leukemia) was greater than 100 µM, the GI50 (SNB-75 CNS) was 12.1 µM and the TGI (SNB-75 CNS) was 25.5 µM. The GI50 (786-0 renal) was 14.2 µM, the TGI (786-0 renal) was 29.2 µM and the GI50 (SN12C renal) was 11.5 µM. For the same compound, the TGI (SN12C renal) was 24.6 µM, the GI50 (SK-MEL-5 melanoma) was 16.1 µM and the TGI (SK-MEL-5 melanoma) was 29.8 µM. The GI50 (OVCAR-5 ovarian) was 15.1 µM, the TGI (OVCAR-5 ovarian) was 29.1 µM and the GI50 (UACC-257 melanoma) was 14.9 µM. It also gave a TGI (UACC-257 melanoma) of 31.9 µM, a GI50 (M14 melanoma) of 13.5 µM and a TGI (M14 melanoma) of 30.6 µM. It also gave a GI50 (HCC-2998 colon) of 12.7 µM, a TGI (HCC-2998 colon) of 26.1 µM and a GI50 (SK-MEL-2 melanoma) of 16.7 µM. It also gave a TGI (SK-MEL-2 melanoma) of 35.4 µM.
